Measurements as given in US20200270225A1, “Chiral Diacylhydrazine Ligands for Modulating the Expression of Exogenous Genes via an Ecdysone Receptor Complex” (Intrexon Corporation, priority 2007, published 2020).

How the values were obtained:
[1] = Solubility in pharmaceutical excipients, Assay 1 (qualitative); type: physicochemical
Experimental: The solubility of micronized R enantiomer and racemate of 2-Ethyl-3-methoxy-benzoic acid N′-(1-tert-butyl-butyl)-N′-(3,5-dimethyl-benzoyl)-hydrazide was assessed qualitatively in commercially-available excipients (FIG. 9). Initial solutions/suspensions of 10 mg/g (test article/excipient) in glass vials were prepared by sonication at room temperature for 15 minutes with swirling for 30 seconds at 5 minute intervals, followed by heating in an aluminum block at 50° C. for 12 minutes with swirling for 30 seconds at 3 minute intervals. Based on the appearance of this initial 10 mg/g excipient sample, a 2-4 point concentration continuum was scanned by up or down sampling at several of the following points: 5, 10, 15, 20, 30, 50 mg/g (test article/excipient). […] Photos of several of the preparations in clear glass vials were taken (not shown).

[2] = test system: Caco-2 cell monolayers; assay: Bidirectional permeability through Caco-2 cell monolayers; type: in vitro ADME
Experimental: The test compounds were prepared as 5 μM in HBSSg with a maximum DMSO concentration <1%. Confluent monolayers of Caco-2 cells, 21 to 28 days old were prepared. The receiver well was prepared with 1% BSA in modified Hanks buffer HBSSg, and the apical and basolateral sides of Caco-2 cell were maintained at pH 7.4±0.2. Two monolayers were dosed in each direction (N=2): the apical side was dosed for (A→B) assessment and the basolateral side was dosed for (B→A) assessment. The test compound concentration was measured for both apical and basolateral sides at a time point of 120 minutes using a generic LC/MS/MS method with a minimum 4 point calibration curve. The values in FIG. 13 are: the percent recovery of the test compound from Transwell® wells containing Caco-2 cell monolayers; apparent permeability (Papp) in both directions; efflux ratio (Papp B→A)/(Papp A→B); absorption potential of a test compound classified as either Low or High; efflux classification is significant when efflux ≥3.0 and Papp (B→A)≥1.0×10-6 cm/s. […] Also, the efflux rate for the R enantiomer is lower.

[3] = Microsomal metabolism; type: in vitro ADME, human; conditions: 5 μM, 1.0 mg/mL microsomal protein, 1 mM NADPH, 60 minutes
Experimental: The test compounds were prepared as 5 μM solutions in DMSO (concentration less than 0.25%), methanol, or acctonitrile. Mixed gender human liver microsomes were pooled from a ≥10 donors, and incubated with 1 mM NADPH. The test compound was incubated at 37° C. in buffer containing 1.0 mg/mL of microsomal protein with 1 mM NADPH. At 0 and 60 minutes, the mixture was sampled and monitored by LC/MS/MS for the peak area corresponding to the test compound, with the range of 10-100%. The assay was run in duplicate (N=2 separate incubations). The data reported in FIG. 15 is percent remaining of testosterone standard and percent remaining of the test compound.

CCC[C@@H](N(NC(=O)c1cccc(OC)c1CC)C(=O)c1cc(C)cc(C)c1)C(C)(C)C [Example 1, (R)-3,5-Dimethyl-benzoic Acid N-(1-tert-butyl-butyl)-N′-(2-ethyl-3-methoxy-benzoyl)-hydrazide]
solubility in pharmaceutical excipients (qualitative) ([1]; all tested excipients except neat polysorbate 80, 5-50 mg/g): more soluble than racemate
solubility in neat polysorbate 80 (qualitative) ([1]; neat polysorbate 80): comparably soluble
efflux rate, compared ([2]; Caco-2): lower
apparent permeability (Papp), compared ([2]; Caco-2, A→B and B→A, 5 μM, 120 minutes): more permeable than the racemate in both directions
stability to metabolism in human liver microsomes, compared [3]: slightly more stable
